In article PMC11396751, “Design, Synthesis, and Anticancer Activity of Novel Enmein-Type Diterpenoid Derivatives Targeting the PI3K/Akt/mTOR Signaling Pathway” (Molecules, 2024):

How the values were obtained:
[1] = test system: A549 cells; assay: MTT anti-proliferative assay, A549; assay type: cell-based, human; conditions: for IC50: Homo sapiens, A549, MTT, 48 h, means ± SD of three experiments
Protocol: (§1) A series of novel enmein-type diterpenoid derivatives, 5a–m, were synthesized by introducing a side chain containing a carbamate moiety at the C-6 position of compound 4. The anticancer activities of 5a–m were tested against three human cancer cell lines and one human normal cell line by MTT assay.
(§2) Human non-small cell lung cancer cell lines (A549), human liver cancer cell lines (HepG2), human breast cancer cell lines (MCF-7), and human normal cell lines (L-02) were purchased from the cell bank of the Chinese Academy of Sciences. All cells were placed in RPMI-1640 medium (added 10% fetal bovine serum, […]) and cultured in an aseptic environment with 5% CO2 at 37 °C.
(§3) All derivatives were evaluated for their anti-proliferative activities against three cancer cell lines and one normal cell line by MTT assay. The cells in the logarithmic growth phase were inoculated into 96-well plates (3 × 10^3 cells/well) and incubated for 48 h in a sterile environment with 5% CO2 at 37 °C to make them attach via cell adhesion; then, the cells were co-incubated with target compounds for 48 h. After that, MTT solution (10 µL/well) was added to the cell culture medium to continue incubation for 4 h, following which the medium was replaced with DMSO (150 µL/well). The absorbance values at 490 nm were determined using an enzyme meter (Safire 2, Tecan, Männedorf, Switzerland) and further converted to half-inhibitory concentration values of these compounds.

[2] = test system: HepG2 cells; assay: MTT anti-proliferative assay, HepG2; assay type: cell-based, human; conditions: for IC50: Homo sapiens, HepG2, MTT, 48 h, means ± SD of three experiments; for anticancer activity in words, HepG2: HepG2 cells
Protocol: as §1, §2, §3

[3] = test system: MCF-7 cells; assay: MTT anti-proliferative assay, MCF-7; assay type: cell-based; conditions: Homo sapiens, MCF7, 48 h, means ± SD of three experiments
Protocol: as §1, §2, §3

[4] = test system: L-02 cells; assay: MTT anti-proliferative assay, normal L-02 cells; assay type: cell-based; conditions: means ± SD of three experiments
Protocol: as §1, §2, §3

| IC50 [1] [µM] | IC50 [2] [µM] | IC50 [3] [µM] | Structure (SMILES) | IC50 ([4]; Homo sapiens, L02, 48 h) [µM] | anticancer activity in words, HepG2 [2] | IC50 ([4]; L02, human normal cells, 48 h) [µM] | fold better than parental compound 4 (A549 IC50) ([1]; A549 cells) [fold] |
| --- | --- | --- | --- | --- | --- | --- | --- |
| 7.48 ± 1.31 | 10.5 ± 1.68 | 12.8 ± 1.64 | C=C1C(=O)C23C(=O)OC45CCC(C)(C)C6C(OC(=O)CCC(=O)NCc7ccc(C)cc7)OCC64C2CCC1C3O5 (single isomer, unassigned; ent-6) [Compound 7b, ent-6β,14α-Dihydroxy-(1,7–1,14)-epoxy-7,15-dioxo-6,20-hemiketal-6,7-seco-16-kaurene-6β-yl 4-((4-methylbenzyl)amino)-4-oxobutanoate] | > 50 |  |  |  |
| 7.38 ± 0.96 | 8.61 ± 1.14 | 8.2 ± 1.21 | C=C1C(=O)C23C(=O)OC45CCC(C)(C)C6C(OC(=O)CCC(=O)NCc7ccc(Cl)cc7)OCC64C2CCC1C3O5 (single isomer, unassigned; ent-6) [Compound 7f, ent-6β,14α-Dihydroxy-(1,7–1,14)-epoxy-7,15-dioxo-6,20-hemiketal-6,7-seco-16-kaurene-6β-yl 4-((4-chlorobenzyl)amino)-4-oxobutanoate] | > 50 | low micro-molar-level anticancer activities |  |  |
| 13.4 ± 2.19 | 18.3 ± 1.36 | 20.7 ± 1.2 | C=C1C(=O)C23C(=O)OC45CCC(C)(C)C6C(OC(=O)N7CCCC7)OCC64C2CCC1C3O5 (single isomer, unassigned; ent-6) [Compound 5f, ent-6β,14α-Dihydroxy-(1,7–1,14)-epoxy-7,15-dioxo-6,20-hemiketal-6,7-seco-16-kaurene-6β-yl pyrrolidine-1-carboxylate] | 45.9 ± 2.3 |  |  |  |
| 21.1 ± 1.58 | 22.6 ± 1.2 | 18.5 ± 1.37 | C=C1C(=O)[C@]23[C@H](O)[C@H]1CC[C@H]2[C@@]12CO[C@]3(O)[C@@H](O)[C@@H]1C(C)(C)CC[C@@H]2O [Oridonin, reference compound] | 23.6 ± 1.65 |  |  |  |
| 14.7 ± 1.54 | 17.1 ± 1.39 | 30.7 ± 1.16 | C=C1C(=O)C23C(=O)OC45CCC(C)(C)C6C(OC(=O)N(C)C)OCC64C2CCC1C3O5 (single isomer, unassigned; ent-6) [Compound 5a, ent-6β,14α-Dihydroxy-(1,7–1,14)-epoxy-7,15-dioxo-6,20-hemiketal-6,7-seco-16-kaurene-6β-yl dimethylcarbamate] | > 50 |  |  |  |
| 23.8 ± 1.86 | 27.4 ± 0.83 | 25.8 ± 1.14 | C=C1C(=O)C23C(=O)OC45CCC(C)(C)C6C(O)OCC64C2CCC1C3O5 (single isomer, unassigned; ent-6) [Compound 4, Ent-6β,14α-Dihydroxy-(1,7–1,14)-epoxy-7,15-dioxo-6,20-hemiketal-6,7-seco-16-kaurene] | 30.2 ± 1.58 |  |  |  |
| 15.8 ± 1.5 | 15.2 ± 1.58 | 17.6 ± 2.4 | C=C1C(=O)C23C(=O)OC45CCC(C)(C)C6C(OC(=O)N(CC)CC)OCC64C2CCC1C3O5 (single isomer, unassigned; ent-6) [Compound 5b, ent-6β,14α-Dihydroxy-(1,7–1,14)-epoxy-7,15-dioxo-6,20-hemiketal-6,7-seco-16-kaurene-6β-yl diethylcarbamate] | > 50 |  |  |  |
| 8.6 ± 2.65 | 8.78 ± 1.46 | 13 ± 1.52 | C=C1C(=O)C23C(=O)OC45CCC(C)(C)C6C(OC(=O)CCC(=O)NCc7ccc(Br)cc7)OCC64C2CCC1C3O5 (single isomer, unassigned; ent-6) [Compound 7g, ent-6β,14α-Dihydroxy-(1,7–1,14)-epoxy-7,15-dioxo-6,20-hemiketal-6,7-seco-16-kaurene-6β-yl 4-((4-bromobenzyl)amino)-4-oxobutanoate] | > 50 | low micro-molar-level anticancer activities |  |  |
| 23.3 ± 2.25 | 34.1 ± 3.52 | 32.8 ± 2.95 | C=C1C(=O)C23C(=O)OC45CCC(C)(C)C6C(OC(=O)N(c7ccccc7)c7ccccc7)OCC64C2CCC1C3O5 (single isomer, unassigned; ent-6) [Compound 5j, ent-6β,14α-Dihydroxy-(1,7–1,14)-epoxy-7,15-dioxo-6,20-hemiketal-6,7-seco-16-kaurene-6β-yl diphenylcarbamate] | > 50 |  |  |  |
| 4.21 ± 0.73 | 6.6 ± 1.61 | 5.15 ± 0.8 | CC(=O)O[C@H]1C(=O)[C@@]2(C)[C@H]([C@H](OC(=O)c3ccccc3)[C@]3(O)C[C@H](OC(=O)[C@H](O)[C@@H](NC(=O)c4ccccc4)c4ccccc4)C(C)=C1C3(C)C)[C@]1(OC(C)=O)CO[C@@H]1C[C@@H]2O [Taxol, reference compound] | 8.31 ± 1.82 |  |  |  |
| 15.3 ± 2.4 | 21.1 ± 2.5 | 22.8 ± 2.13 | C=C1C(=O)C23C(=O)OC45CCC(C)(C)C6C(OC(=O)N7CCCCC7)OCC64C2CCC1C3O5 (single isomer, unassigned; ent-6) [Compound 5g, ent-6β,14α-Dihydroxy-(1,7–1,14)-epoxy-7,15-dioxo-6,20-hemiketal-6,7-seco-16-kaurene-6β-yl piperidine-1-carboxylate] | > 50 |  |  |  |
| 6.41 ± 1.9 | 11.5 ± 1.58 | 7.64 ± 2.52 | C=C1C(=O)C23C(=O)OC45CCC(C)(C)C6C(OC(=O)CCC(=O)NCc7ccc(C(C)(C)C)cc7)OCC64C2CCC1C3O5 (single isomer, unassigned; ent-6) [Compound 7d, ent-6β,14α-Dihydroxy-(1,7–1,14)-epoxy-7,15-dioxo-6,20-hemiketal-6,7-seco-16-kaurene-6β-yl 4-((4-(tert-butyl)benz-yl)amino)-4-oxobutanoate] | 35.7 ± 2.66 |  |  |  |
| 17.2 ± 1.43 | 25.7 ± 2.16 | 26.3 ± 2.3 | C=C1C(=O)C23C(=O)OC45CCC(C)(C)C6C(OC(=O)N7c8ccccc8Sc8ccccc87)OCC64C2CCC1C3O5 (single isomer, unassigned; ent-6) [Compound 5k, ent-6β,14α-Dihydroxy-(1,7–1,14)-epoxy-7,15-dioxo-6,20-hemiketal-6,7-seco-16-kaurene-6β-yl 10H-phenothiazine-10-carboxylate] | > 50 |  |  |  |
| 8.3 ± 2.55 | 11.2 ± 1.82 | 15.9 ± 1.9 | C=C1C(=O)C23C(=O)OC45CCC(C)(C)C6C(OC(=O)CCn7cccc7)OCC64C2CCC1C3O5 (single isomer, unassigned; ent-6) [Compound 5l, ent-6β,14α-Dihydroxy-(1,7–1,14)-epoxy-7,15-dioxo-6,20-hemiketal-6,7-seco-16-kaurene-6β-yl 3-(1H-pyrrol-1-yl) propanoate] | > 50 |  |  |  |
| 6.85 ± 1.68 | 10.9 ± 1.25 | 12.3 ± 1.11 | C=C1C(=O)C23C(=O)OC45CCC(C)(C)C6C(OC(=O)CCN7C(=O)c8ccccc8C7=O)OCC64C2CCC1C3O5 (single isomer, unassigned; ent-6) [Compound 5m, ent-6β,14α-Dihydroxy-(1,7–1,14)-epoxy-7,15-dioxo-6,20-hemiketal-6,7-seco-16-kaurene-6β-yl 3-(1,3-dioxoisoindolin-2-yl) propanoate] | 32.5 ± 1.62 |  |  | 3.48 |
| 20.2 ± 1.46 | 22.5 ± 3.42 | 21.9 ± 2.72 | C=C1C(=O)C23C(=O)OC45CCC(C)(C)C6C(OC(=O)N(C)CC)OCC64C2CCC1C3O5 (single isomer, unassigned; ent-6) [Compound 5c, ent-6β,14α-Dihydroxy-(1,7–1,14)-epoxy-7,15-dioxo-6,20-hemiketal-6,7-seco-16-kaurene-6β-yl ethyl(methyl)carbamate] | > 50 |  |  |  |
| 7.12 ± 1.52 | 11.6 ± 1.34 | 9.85 ± 1.53 | C=C1C(=O)C23C(=O)OC45CCC(C)(C)C6C(OC(=O)CCC(=O)NCc7ccc(F)cc7)OCC64C2CCC1C3O5 (single isomer, unassigned; ent-6) [Compound 7e, ent-6β,14α-Dihydroxy-(1,7–1,14)-epoxy-7,15-dioxo-6,20-hemiketal-6,7-seco-16-kaurene-6β-yl 4-((4-fluorobenzyl)amino)-4-oxobutanoate] | > 50 |  |  |  |

| Structure (SMILES) | IC50 [1] [µM] | IC50 [2] [µM] | IC50 [3] [µM] | IC50 ([4]; Homo sapiens, L02, 48 h) [µM] | anticancer activity in words, HepG2 [2] | IC50 ([4]; L02, human normal cells, 48 h) [µM] | fold better than parental compound 4 (A549 IC50) ([1]; A549 cells) [fold] |
| --- | --- | --- | --- | --- | --- | --- | --- |
| C=C1C(=O)C23C(=O)OC45CCC(C)(C)C6C(OC(=O)N(CCCl)CCCl)OCC64C2CCC1C3O5 (single isomer, unassigned; ent-6) [Compound 5d, ent-6β,14α-Dihydroxy-(1,7–1,14)-epoxy-7,15-dioxo-6,20-hemiketal-6,7-seco-16-kaurene-6β-yl bis(2-chloroethyl) carbamate] | 8.76 ± 1.56 | 11 ± 1.45 | 15.6 ± 1.61 |  |  | 30.4 ± 3.44 |  |
| C=C1C(=O)C23C(=O)OC45CCC(C)(C)C6C(OC(=O)CCC(=O)NCc7ccccc7)OCC64C2CCC1C3O5 (single isomer, unassigned; ent-6) [Compound 7a, ent-6β,14α-Dihydroxy-(1,7–1,14)-epoxy-7,15-dioxo-6,20-hemiketal-6,7-seco-16-kaurene-6β-yl 4-(benzylamino)-4-oxobutanoate] | 10.2 ± 1.1 | 13.8 ± 2.19 | 10.8 ± 1.65 |  |  | > 50 |  |
